Experimental data published in patent US7989634B2, “Melanocortin receptor agonists” (LG Life Sciences Ltd., priority 2003, dated 2011).

Experiments:
[1] = target: T1, human melanocortin receptor 4 (MC4R) (Homo sapiens, UniProt P32245); assay: Membrane fraction binding assay (125I-NDP-MSH competition); details: binding affinity against MCR4
T1 construct: expressed in transfected cells
Description: The membrane fraction binding assay was used to identify competitive inhibitors of ^125I-NDP- -MSH binding to cloned human MCRs expressed in HEK cells.
Cell lines expressing human melanocortin receptor 4 (MC4R) were grown in Φ150 mm culture dishes in DMEM (GIBCO-BRL) supplemented with 10% FBS, 200 ug/ml Geneticin (GIBCO-BRL), and antibiotics (penicillin and streptomycin) (GIBCO-BRL) in an atmosphere of 6% CO2 at 37° C. When the cells were fully grown, the cells were washed once with 10 ml of Ca^++, Mg^++ free DPBS. The cells were incubated with 8 ml of Ca^++, Mg^++ free DPBS for 15-30 min at 37° C. until the cells were easily detached by triturating with pipette. The cells were harvested into 50 ml of conical tubes, and spun at 1500 rpm for 5 min. The supernatant was discarded, and the cells were resuspended in 8 ml of Ca^++, Mg^++ free DPBS, and spun at 1500 rpm for 5 min. The supernatant was discarded, and pellets were resuspended in 3 ml of membrane preparation buffer (50 mM Tris, pH 7.2˜7.4, 4 ug/ml Leupeptin; 10 uM Phosphoramidon; 40 ug/ml Bacitracin; 5 ug/ml Aprotinin; 10 mM Pefabloc). The pellets were homogenized with dounce homogenizer (Bellco with type “B” glass pestle) using 10-12 strokes. The homogenate was centrifuged (Beckman XL-100K Ultracentrifuge, Rotor 45 Ti, 50 ml centrifuge tube) at 40,000 rpm (100,000×g) for 30 min at 4° C. The pellets were resuspended in 20 ml of membrane preparation buffer, and protein was determined by BCA assay kit (PIERCE). Aliquots were placed in tubes and stored at −80° C.
Membrane fraction was diluted with membrane binding buffer to make final 600 ug/ml, and 50 ul of membrane fraction containing 30 ug of membrane protein was added onto each well of 96-well assay plate. 25 ul of test compounds or 20 uM unlabelled NDP- -MSH (to make the final concentration at 5 uM) diluted with membrane binding buffer was added onto each well of 96-well assay plate. […] The top was sealed, and the radioactivity was quantitated in a Packard Topcount Microplate Scintillation Counter. […]

[2] = target: T1, human melanocortin receptor 4 (MC4R); assay: Luciferase functional assay; format: cell-based; details: agonistic efficacy against MCR4; functional assay not specified (luciferase or cAMP)
Description: Cell lines expressing human melanocortin receptor 4 (MC4R) were dissociated from tissue culture dishes by rinsing with Ca^++, Mg^++ free DPBS, treated with 1× Trypsin/EDTA solution for 1 min at 37° C., and resuspended with DMEM (GIBCO-BRL) supplemented with 10% FBS. The cells were counted and diluted with DMEM supplemented with 10% FBS and 200 ug/ml of Geneticin to 5×10^5 cells/ml. 90 ul of cell suspension was plated onto each well of 96-well black and clear bottom culture plates (Costar). After the incubation for 24 h in the atmosphere of 6% CO2 at 37° C., 10 ul of NDP- -MSH and test compounds diluted in DMSO were added to each well. The final DMSO concentration was 1%. After 4 h of incubation in the atmosphere of 6% CO2 at 37° C., 50 ul of Bright-Glo (Promega) was added to each well. Luciferase activity was measured by using L-Max luminometer (Molecular Device). The amount of luciferase activity induced by treatment with NDP- -MSH was defined as 100% to obtain the relative efficacy of test compounds. The EC0.5 MSH was defined as the concentration of test compounds that results in half maximal activity of NDP- -MSH. The EC50 was defined as the concentration of test compound that results in half maximal activity of its own.

T1 sequence (P32245 whole entry): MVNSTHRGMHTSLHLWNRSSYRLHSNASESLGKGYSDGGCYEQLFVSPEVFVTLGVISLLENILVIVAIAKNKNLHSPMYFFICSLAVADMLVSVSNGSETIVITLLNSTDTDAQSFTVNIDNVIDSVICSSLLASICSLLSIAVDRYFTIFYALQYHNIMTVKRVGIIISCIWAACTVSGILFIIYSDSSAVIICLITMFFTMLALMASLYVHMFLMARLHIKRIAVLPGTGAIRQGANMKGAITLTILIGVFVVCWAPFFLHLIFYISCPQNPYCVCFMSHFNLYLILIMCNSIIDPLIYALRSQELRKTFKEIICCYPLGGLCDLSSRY

Row | IC50 [1] | EC50 [2] | SMILES
1 | 100 to 500 nM | 5 to 500 nM | CC(C)C(=O)N(C1CCCCC1)[C@H]1CCN(NC(=O)[C@@H](Cc2ccc(Cl)cc2)NC[C@H]2CCCN2)C1 [Example 3, (2R)-2-{[(2R)-pyrrolidine-2-yl]methyl}amino-N-{(3S)-3-[cyclohexyl(isobutyryl)amino]pyrrolidine-1-yl}-3-(4-chlorophenyl)propionamide 2TFA]
2 | 100 to 500 nM | 5 to 500 nM | CC(C)C(=O)N(C1CCCCC1)[C@H]1CCN(C(=O)[C@@H](Cc2ccc(Cl)cc2)NC(=O)[C@H]2CCCN2)C1 [Example 2]
3 | 100 to 500 nM | 5 to 500 nM | CC(C)C(=O)N(C1CCCCC1)[C@H]1CCN(C(=O)[C@H](N)Cc2ccc(Cl)cc2)C1 [Example 1]
